Laboratory results published in US10828379B2, “In vivo differentiation of relative oxygen levels and tumor necrosis using divalent europium” (WAYNE STATE UNIVERSITY, priority 2015, dated 2020).

Assays:
[1] = In vivo T1-weighted MRI after intravenous, intraperitoneal and subcutaneous injection; design: species or system mouse; settings: liver, kidneys, bladder; equivalent dose for Gd control
Method: To test our hypothesis regarding the in vivo response of Eu^II-222, we acquired T1-weighted images of mice after administering Eu^II-222 (0.1 mL, 4 mM, europium dose of 3 mg/kg) through intravenous, intraperitoneal, and subcutaneous injections (FIG. 8). Mice were imaged prior to injection and at 3 and 8 min to compare responses with the three injection types. […] Although this observation is inconsistent with the low oxygen content of venous blood (relative to the peritoneal cavity), the circulation time of blood in a mouse is approximately 8 s (38). […] Therefore, the exchange between venous and arterial blood during circulation can explain our observations.
Studies in animals were carried out with the assistance of the Animal Model and Therapeutics Evaluation Core of the Barbara Ann Karmanos Cancer Institute after approval from the Wayne State University Institutional Animal Care and Use Committee. MRI scans were performed in the Elliman Clinical Research Building at Wayne State University with a 7 T Bruker Clinscan small animal MRI scanner equipped with a 30 cm bore. […]
For intravenous injections, mice were catheterized before being anesthetized with isoflurane. […] A correction volume (0.08 mL) was added to the calculated dose volumes for intravenous injections to account for the volume of the phosphate-buffered saline within the catheter. […]

4T1 mammary carcinoma = experiment: In vivo T1-weighted MRI after intratumoral injection, with histological staining; design: species or system mouse; settings: bladder, liver, kidneys; Gd control 50 μL, 20.5 mM
Method: To test whether Eu^II-222Fb would enhance contrast in necrotic tissue, we performed T1-weighted MRI before and after intratumoral injection of Eu^II-222Fb (50 μL, 19.4 mM) into a 4T1 mammary carcinoma. The 4T1 carcinoma model is an aggressive tumor that typically develops a necrotic core,^[10] and imaging was performed when tumors reached approximately 700-1000 mg to maximize the probability of necrosis. Images were acquired before and at 3, 20, and 120 min after intratumoral injection (FIG. 3A-D). […]
To better understand the potential mechanism of differentiation, we performed an intratumoral injection of Eu^II-222Fb (50 μL, 6.9 mM) and monitored contrast enhancement over the course of 3 h before sacrificing the mouse and removing the injected tumor for analysis of Eu content by inductively coupled plasma mass spectrometry. […]
Studies in animals were carried out with the assistance of the Animal Model and Therapeutics Evaluation Core of the Barbara Ann Karmanos Cancer Institute after approval from the Wayne State University Institutional Animal Care and Use Committee. […] Animals were pooled, implanted bilaterally subcutaneously with 30-60 mg tumor fragments with a 12 gauge trocar, and imaged when tumors reached approximately 700-1000 mg in size (determined by caliper measurements: tumor mass (mg)≈[tumor length (mm)×tumor width^2 (mm^2)]/2). […]

Compound	contrast enhancement in organs associated with clearance after intravenous injection [1]	contrast enhancement in organs associated with clearance after intratumoral injection (4T1 mammary carcinoma)
O=C([O-])CN(CCN(CC(=O)[O-])CC(=O)[O-])CCN(CC(=O)[O-])CC(=O)[O-].[Gd+3] [Gd^III-diethylenetriaminepentaacetate]	positive contrast enhancement was observed in the kidneys within 3 min	
Gd^III-1,4,7,10-tetraazacyclododecane-1,4,7,10-tetraacetate		bright with contrast within minutes of the injection
